Among the test systems are Streptococcus sanguinis; Staphylococcus aureus; Acinetobacter baumannii; Pseudomonas aeruginosa; Klebsiella pneumoniae; Escherichia coli ML-35p; Bacillus subtilis; Escherichia coli.
Holding throughout (assay): ≥ marks a high value that may be exact or a test limit, other limits are often not marked, values filed in µg/mL are converted to µM
Assay [1] deals with Candida albicans ATCC 90028.
Assay [2] has as its system Klebsiella pneumoniae ATCC 700603.
Assay [3] concerns Staphylococcus aureus ATCC 43300.
Assay [4] relates to Cryptococcus neoformans ATCC 208821.
For assay [5], the system named is Acinetobacter baumannii ATCC 19606.
Assay [6] relates to Escherichia coli ATCC 25922.
Assay [7] has as its system Klebsiella pneumoniae ATCC 13883.
The subject of assay [8] is Bacillus subtilis ATCC 6051.
Assay [9] deals with Klebsiella pneumoniae ATCC BAA-2146.
Assay [10] deals with Pseudomonas aeruginosa ATCC 27853.
Assay [11] deals with Staphylococcus aureus ATCC 25923.
Assay [12] concerns Listeria monocytogenes EGD.
Assay [13] concerns Candida albicans ATCC 2002.
For assay [14], the system named is Listeria monocytogenes ATCC 19115.
Assay [15] deals with Salmonella enterica subsp. enterica serovar Typhimurium ATCC 14028.
Assay [16] has as its system Staphylococcus epidermidis ATCC 51625.
Assay [17] has as its system Staphylococcus aureus ATCC BAA-44.
Assay [18] concerns Streptococcus pyogenes ATCC 19615.
The subject of assay [19] is Enterococcus faecalis ATCC 29212.

Values after ≈ are worked out from the molar mass of the structure shown.

Experimental findings from DBAASP are described below.

Usually MIC stands for the smallest concentration in the dilution series that meets the test's criterion for growth inhibition. As to `NC(=O)[C@H](Cc1ccccc1)NC(=O)[C@H](Cc1ccccc1)NC(=O)[C@H](Cc1ccccc1)NC(=O)[C@H](Cc1ccccc1)NC(=O)[C@H](Cc1ccccc1)NC(=O)[C@H](Cc1ccccc1)NC(=O)[C@@H](N)Cc1ccccc1` [FFFFFFF], the minimal inhibitory concentration (MIC) against Streptococcus sanguinis and in the assay on Staphylococcus aureus was 3.3 µM (≈ 3.46 µg/mL) each time.

On to `CC[C@H](C)[C@@H]1NC(=O)CNC(=O)[C@H](CCCN=C(N)N)NC(=O)[C@H](Cc2ccc(O)cc2)NC(=O)[C@@H]2CSSC[C@H](NC1=O)C(=O)N[C@@H](Cc1ccc(O)cc1)C(=O)N[C@@H](C)C(=O)N[C@@H](CCCN=C(N)N)C(=O)N[C@H](C(=O)N[C@@H](CCCN=C(N)N)C(=O)O)CSSC[C@H](NC(=O)[C@H](Cc1c[nH]c3ccccc13)NC(=O)[C@@H](N)CCCCN)C(=O)N[C@@H](Cc1ccccc1)C(=O)N[C@@H](CCCN=C(N)N)C(=O)N[C@@H](C(C)C)C(=O)N2` [KWCFRVCYRGICYARCR], for which the MIC with Acinetobacter baumannii was 0.0572 µM (≈ 0.125 µg/mL); in assay [1], 3.66 µM (≈ 7.99 µg/mL); in [2], 0.229 µM (≈ 0.499 µg/mL); in [3] it was 0.229 µM (≈ 0.499 µg/mL); in [4], 0.115 µM (≈ 0.25 µg/mL); in assay [5] it was 0.0572 µM (≈ 0.125 µg/mL). Moreover, the MIC in assay [6] came to 0.0572 µM (≈ 0.125 µg/mL); in assay [7], 0.0275 µM (≈ 0.0599 µg/mL); in assay [8] it was 0.0572 µM (≈ 0.125 µg/mL); in assay [9] it was 0.115 µM (≈ 0.25 µg/mL); in the assay on Pseudomonas aeruginosa, 0.115 µM (≈ 0.25 µg/mL); in assay [10], 0.0572 µM (≈ 0.125 µg/mL). Further, the MIC in the assay with Klebsiella pneumoniae worked out at 0.458 µM (≈ 0.998 µg/mL).

For `CC(C)C[C@H](N)C(=O)N[C@@H](Cc1ccccc1)C(=O)N[C@@H](Cc1ccccc1)C(=O)N[C@@H](Cc1ccccc1)C(=O)N[C@@H](Cc1ccccc1)C(=O)N[C@@H](Cc1ccccc1)C(N)=O` [LFFFFF], the MIC against Streptococcus sanguinis is at least 32.6 µM; in the assay on Staphylococcus aureus, 29.4 µM (≈ 25.5 µg/mL).

As for `CC(C)C[C@H](NC(=O)[C@H](CC(C)C)NC(=O)[C@H](CCC(N)=O)NC(=O)[C@H](CCCCN)NC(=O)[C@H](CC(C)C)NC(=O)[C@H](CCCCN)NC(=O)[C@H](CCCCN)NC(=O)[C@@H](N)CC(C)C)C(=O)NCC(=O)N[C@@H](CCCCN)C(=O)N[C@@H](CC(C)C)C(=O)N[C@@H](CO)C(=O)N[C@@H](CCC(=O)O)C(=O)N[C@@H](Cc1ccccc1)C(=O)N[C@@H](C)C(=O)N[C@@H](C)C(=O)N[C@@H](C)C(=O)N[C@@H](Cc1ccccc1)C(=O)N[C@H](C(=O)N[C@@H](C)C(N)=O)C(C)C` [LKKLKQLLGKLSEFAAAFVA], the MIC in assay [11] worked out at 32 µM (≈ 69.6 µg/mL); in assay [6], 32 µM (≈ 69.6 µg/mL); in [12], 8 µM (≈ 17.4 µg/mL); in assay [10] it was 16 µM (≈ 34.8 µg/mL).

In turn, `CC(C)C[C@H](NC(=O)[C@H](C)NC(=O)[C@@H](NC(=O)[C@H](C)NC(=O)[C@H](CC(C)C)NC(=O)[C@H](CCCCN)NC(=O)[C@H](Cc1ccccc1)NC(=O)[C@H](CCCCN)NC(=O)[C@H](C)NC(=O)[C@@H](N)CO)C(C)C)C(=O)NCC(=O)N[C@@H](CCC(N)=O)C(=O)N[C@@H](Cc1ccccc1)C(=O)N[C@@H](CCCCN)C(=O)N[C@@H](CCC(=O)O)C(=O)N[C@@H](CCCCN)C(=O)N[C@@H](CC(C)C)C(=O)N[C@@H](CC(C)C)C(=O)N[C@@H](CC(C)C)C(=O)N[C@@H](C)C(N)=O` [SAKFKLAVALGQFKEKLLLA] returned an MIC in assay [12] of at least 128 µM.

`CC[C@H](C)[C@H](NC(=O)[C@H](C)NC(=O)[C@@H](NC(=O)[C@@H](NC(=O)[C@H](CCCCN)NC(=O)[C@@H](NC(=O)[C@H](CCCCN)NC(=O)[C@H](CC(=O)O)NC(=O)[C@H](CCCN=C(N)N)NC(=O)[C@@H](NC(=O)[C@@H](N)CO)[C@@H](C)CC)[C@@H](C)CC)[C@@H](C)O)[C@@H](C)CC)C(=O)N[C@@H](CC(=O)O)C(=O)N[C@@H](CC(C)C)C(=O)N[C@@H](C)C(=O)N[C@@H](CCCCN)C(=O)N[C@@H](CO)C(=O)N[C@@H](C)C(=O)NCC(=O)N[C@H](C(=O)NCC(=O)N[C@H](C(=O)N[C@@H](CC(C)C)C(=O)N[C@@H](CCCCN)C(=O)N[C@H](C(=O)N[C@@H](CC(C)C)C(=O)N[C@H](C(=O)N[C@H]1CSSC[C@@H](C(=O)O)NC(=O)[C@H](CO)NC(=O)[C@H](CCCCN)NC(=O)[C@H](CC(=O)O)NC(=O)[C@H](CC(C)C)NC(=O)[C@H](CCCCN)NC1=O)[C@@H](C)CC)[C@@H](C)O)C(C)C)[C@@H](C)O` [SIRDKIKTIAIDLAKSAGTGVLKTLICKLDKSC]: the MIC is 7.13 µM (≈ 25 µg/mL) against Escherichia coli ML-35p; 1.34 µM (≈ 4.69 µg/mL) in [11]; 2.68 µM (≈ 9.37 µg/mL) with Bacillus subtilis; over 28.5 µM in assay [10]; 1.61 µM (≈ 5.63 µg/mL) in assay [13].

In assay [14], `CC(C)C[C@H](NC(=O)[C@H](Cc1ccccc1)NC(=O)[C@@H]1CCCN1C(=O)[C@@H]1CCCN1C(=O)[C@H](CC(N)=O)NC(=O)[C@@H](NC(=O)[C@@H](NC(=O)[C@@H]1CCCN1C(=O)[C@@H](N)[C@@H](C)O)C(C)C)C(C)C)C(=O)N[C@@H](CCC(N)=O)C(=O)N[C@@H](CCC(N)=O)C(=O)N[C@H](C(N)=O)[C@@H](C)O` [TPVVNPPFLQQT] returned an MIC of at least 382 µM.

In the case of `CC(C)C[C@H](NC(=O)[C@H](CO)NC(=O)[C@H](CCCN=C(N)N)NC(=O)[C@H](CCCCN)NC(=O)[C@@H](NC(=O)[C@@H](NC(=O)CNC(=O)[C@H](CCCN=C(N)N)NC(=O)[C@H](Cc1cnc[nH]1)NC(=O)[C@H](Cc1c[nH]c2ccccc12)NC(=O)[C@H](Cc1ccccc1)NC(=O)[C@H](Cc1cnc[nH]1)NC(=O)[C@H](Cc1ccc(O)cc1)NC(=O)[C@@H](N)Cc1ccc(O)cc1)C(C)C)[C@@H](C)O)C(=O)N[C@@H](CO)C(=O)N1CCC[C@H]1C(=O)N[C@@H](Cc1cnc[nH]1)C(=O)N[C@@H](CCCN=C(N)N)C(=O)N1CCC[C@H]1C(=O)N[C@@H](CCCN=C(N)N)C(=O)N[C@@H](Cc1cnc[nH]1)C(=O)N[C@@H](CO)C(=O)N[C@@H](CCCN=C(N)N)C(=O)O` [YYHFWHRGVTKRSLSPHRPRHSR], the MIC was 4 µM (≈ 11.8 µg/mL) against Escherichia coli; 4 µM (≈ 11.8 µg/mL) in assay [15]; 4 µM (≈ 11.8 µg/mL) in assay [11]; 6 µM (≈ 17.8 µg/mL) in [16]; 2 µM (≈ 5.92 µg/mL) in [7]; 4 µM (≈ 11.8 µg/mL) in the assay on Bacillus subtilis. In addition, the MIC is 6 µM (≈ 17.8 µg/mL) in assay [17], 6 µM (≈ 17.8 µg/mL) in [18], 4 µM (≈ 11.8 µg/mL) in [19] and 4 µM (≈ 11.8 µg/mL) in assay [10].
